A short description of data set [1]: Resistance index, ratio of IC50 for antiproliferative activity against paclitaxel-resistant human MCF7R cells to IC50 for antiproliferative activity against human MCF7 cells. In kind it is functional.
For data set [2], the system named is DU-145. The experiment in a line: Antiproliferative activity against human DU-145 cells assessed as inhibition of cell growth incubated for 96 hrs by real-time cell analysis. In kind it is functional, cell-based. The settings on record: DU-145, 96 h.
The subject of data set [3] is DU-145. Nature of the data set: Antiproliferative activity against human DU-145 cells assessed as inhibition of cell growth incubated for 48 hrs by real-time cell analysis. In kind it is functional, cell-based. The following applies: DU-145, 48 h.
The test system of data set [4] is DU-145. The experiment in a line: Antiproliferative activity against human DU-145 cells assessed as inhibition of cell growth incubated for 24 hrs by real-time cell analysis. In kind it is functional, cell-based. The following applies: DU-145, 24 h.
For the next data set, the system named is HepG2. Nature of the data set: cells. The settings on record: Homo sapiens, HepG2, 72 h.
The test system of the next data set is HUVEC. Nature of the data set: Anti-angiogenesis activity against HUVEC cells assessed as inhibition of cell growth incubated for 72 hrs by MTT assay. In kind it is functional, cell-based. The settings on record: Homo sapiens. For orientation: Tetrazolium dyes change colour on reduction, which living cells bring about.
Data set [5] can be described thus: Mutagenicity in Salmonella typhimurium TA-102 at 0.5 to 500 ug per plate incubated for 72 hrs in presence or absence of S9 fraction by Ames test. In kind it is toxicity, Salmonella enterica subsp. enterica serovar Typhimurium. The following applies: in vivo, dose 0.5-500 µg. (The Ames test uses bacterial strains that need an amino acid and regain growth without it when mutated back.)

Data set [6] can be described thus: Mutagenicity in Salmonella typhimurium TA-100 at 0.5 to 500 ug per plate incubated for 72 hrs in presence or absence of S9 fraction by Ames test. In kind it is toxicity, Salmonella enterica subsp. enterica serovar Typhimurium. The following applies: in vivo, dose 0.5-500 µg.

As a reminder, the pIC50 is −log10 of the IC50, conventionally taken in molar units.

pIC50: −log10 of the molar value.

`Cc1ccc(S(=O)(=O)Nc2cc(C(=O)NCc3ccc(C)nc3)ccc2C)cc1`: the “Ratio IC50” value in data set [1] is given as 2.48. Further, the pIC50 in the data set on DU-145 [2] is 8.40; in the data set on DU-145 [3], 8.00; with DU-145 [4], 8.00; in the data set on HepG2, 8.52; with HUVEC, 7.49. The Activity entry in data set [5] and in data set [6] was “Non-Toxic” in each case.

These data come from ChEMBL document CHEMBL5150075 (J Med Chem, 2022).
